`CC(C)=C/C=C/C(=O)N1Cc2cc(OCCc3coc(/C=C/CCCC(C)C)n3)ccc2CC1C(=O)O` (configuration not stated) showed a logP of 4.09.

In the case of `CC(C)CCC/C=C/c1nc(CCOc2ccc3c(c2)CN(C(=O)/C=C/C2CC2)C(C(=O)O)C3)co1` (configuration not stated), the logP was 3.69.

`C/C=C/C=C/C(=O)N1Cc2cc(OCCc3nc(/C(=C/C)CC)oc3C)ccc2C[C@H]1C(=O)O` returned a logP of 2.75.

Take `CCC/C=C/C(=O)N1Cc2cc(OCCc3coc(/C=C/CCCC(C)C)n3)ccc2CC1C(=O)O` (configuration not stated): the logP was determined as 4.04.

The compound `C/C=C/C=C/C(=O)N1Cc2cc(OCCc3nc(CCCCC(C)C)oc3C)ccc2C[C@H]1C(=O)O` gave a logP of 3.79.

`C/C=C/C=C/C(=O)N1Cc2cc(OCCc3nc(/C=C/C(C)C)oc3C)ccc2C[C@H]1C(=O)O` displayed a logP of 2.77.

`CCC(O)/C=C/C(=O)N1Cc2cc(OCCc3coc(/C=C/CCCC(C)C)n3)ccc2CC1C(=O)O` (configuration not stated) registered a log partition coefficient (logP) of 3.33.

Regarding `Cc1oc(/C=C/CCC(C)C)nc1CCOc1ccc2c(c1)CN(C(=O)/C=C/C=C/CO)C(C(=O)O)C2` (configuration not stated), the logP came out at 3.09.

Take `CCOC/C=C/C(=O)N1Cc2cc(OCCc3coc(/C=C/CCCC(C)C)n3)ccc2CC1C(=O)O` (configuration not stated): the logP worked out at 3.52.

As for `CCCCCC(=O)N1Cc2cc(OCCc3coc(/C=C/CCCC(C)C)n3)ccc2CC1C(=O)O` (configuration not stated), the logP amounted to 4.34.

`C/C=C/C=C/C(=O)N1Cc2cc(OCCc3nc(/C=C/C(C)(C)C)oc3C)ccc2C[C@H]1C(=O)O`: the lipophilicity (logP) was determined as 3.1.

As to `C/C=C/C=C/C(=O)N1Cc2cc(OCCc3nc(/C=C/CCCC(C)C)oc3C)ccc2CC1C(=O)O` (configuration not stated), the logP was 4.1.

`CC(C)CCC/C=C/c1nc(CCOc2ccc3c(c2)CN(C(=O)/C=C/c2ccco2)C(C(=O)O)C3)co1` (configuration not stated) returned a logP of 3.76.

`CC(C)CCC/C=C/c1nc(CCOc2ccc3c(c2)CN(C(=O)/C=C/c2cccs2)C(C(=O)O)C3)co1` (configuration not stated) gave a lipophilicity (logP) of 3.95.

The compound `C/C=C/C=C/C(=O)N1Cc2cc(OCCc3nc(/C=C/C(CC)CC)oc3C)ccc2C[C@H]1C(=O)O` registered a logP of 3.68.

For the compound `C/C=C/C=C/C(=O)N1Cc2cc(OCCc3nc(/C=C/CC(C)(C)C)oc3C)ccc2C[C@H]1C(=O)O`, the log partition coefficient (logP) is 3.59.

As for `CCO/C=C/C(=O)N1Cc2cc(OCCc3coc(/C=C/CCCC(C)C)n3)ccc2CC1C(=O)O` (configuration not stated), the logP was determined as 3.56.

Consider `C=CCCC(=O)N1Cc2cc(OCCc3nc(/C=C/CCC(C)C)oc3C)ccc2C[C@H]1C(=O)O`, for which the logP came out at 3.76.

In the case of `C/C=C/C=C/C(=O)N1Cc2cc(OCCc3nc(/C=C/C(C)(C)CC)oc3C)ccc2C[C@H]1C(=O)O`, the logP was determined as 3.52.

As for `Cc1oc(/C=C/CCC(C)C)nc1CCOc1ccc2c(c1)CN(C(=O)/C=C/c1ccco1)[C@H](C(=O)O)C2`, the logP stood at 3.76.

As for `C/C=C/C=C/C(=O)N1Cc2cc(OCCc3nc(/C(C)=C/CCC(C)C)oc3C)ccc2C[C@H]1C(=O)O`, the logP is 4.29.

`C=CCCCC(=O)N1Cc2cc(OCCc3coc(/C=C/CCCC(C)C)n3)ccc2CC1C(=O)O` (configuration not stated) showed a logP of 4.03.

The compound `C/C=C/C=C/C(=O)N1Cc2cc(OCCc3nc(C=CCC(C)C)oc3C)ccc2CC1C(=O)O` (configuration not stated) displayed a logP of 3.23.

With `C/C=C/C=C/C(=O)N1Cc2cc(OCCc3nc(/C=C/CCC(C)C)oc3C)ccc2C[C@H]1C(=O)O`, the logP stood at 3.81.

As to `C/C=C/C=C/C(=O)N1Cc2cc(OCCc3nc(/C(C)=C/CC)oc3C)ccc2C[C@H]1C(=O)O`, the logP came out at 2.88.

With `C/C=C/C=C/C(=O)N1Cc2cc(OCCc3nc(/C=C/C(C)CCC)oc3C)ccc2C[C@H]1C(=O)O` (some centres not stated), the logP was 3.84.

Take `CCOCCC(=O)N1Cc2cc(OCCc3coc(/C=C/CCCC(C)C)n3)ccc2CC1C(=O)O` (configuration not stated): the logP was determined as 3.48.

Values taken from the SangsterLogP compilation.
